Laboratory results from paper PMC10081574, “Evaluation of Antiviral Activity of Gemcitabine Derivatives against Influenza Virus and Severe Acute Respiratory Syndrome Coronavirus 2” (ACS Infectious Diseases, 2023).
“Also recorded” adds a separate entry of the source. Read-outs that look alike come from different tables or passages of the source.

How the values were obtained:
A/Hong Kong/8/68 (H3N2) [1] = test: microbe, parasite or virus in culture; conditions: Influenza A virus, H3N2, MDCK, 72 h; for EC50: read-out: EC50 HK
[2] = system: Caco-2 human colorectal adenocarcinoma cells; design: method as in PMID 35310327; conditions: 0.1 μM to 1 mM, 3 day incubation; cited from earlier work
A/Hong Kong/8/68 (H3N2) [3] = conditions: for SI50 HK: ratio of CC50 to EC50
[4] = system: A/Puerto Rico/8/34 (H1N1); test: microbe, parasite or virus in culture; conditions: Influenza A virus, 72 h; for EC50: read-out: EC50 PR8
[5] = system: influenza A and B viruses; test: CPE reduction antiviral assay, values summarised over influenza strains PR8, HK and Lee; assay type: cell-based, influenza virus; conditions: for EC90: read-out: EC90 against influenza viruses
B/Lee/40 = test: CPE reduction antiviral assay in Lee-infected MDCK cells (MTT); assay type: cell-based, influenza B virus; conditions: for EC50: viability of infected cells to 50%
[6] = clinical study; cited from earlier work
MDCK cells [7] = test: Cytotoxicity to mock-infected MDCK cells (MTT); conditions: for CC10: mock-infected MDCK cells, day 3, MTT, concentration inhibiting cell viability by 10%
[8] = Cytotoxicity to mock-infected MDCK cells (MTT); conditions: dog, mock-infected MDCK cells
Calu-3 cells = test: Cytotoxicity to mock-infected Calu-3 cells (MTT); conditions: 100 μM
[9] = target: polymerase activity of influenza A virus PR8 (Influenza A virus, UniProt P03431); assay type: cell-based; conditions: 11, 33 and 100 μM, 72 h time course
in vitro [10] = conditions: human
[11] = mouse, microsomes
MDCK cells [12] = conditions: dog, 3 days
physchem = conditions: aqueous buffer
PR8 virus [13] = assay type: cell-based, influenza A virus
PR8 virus [14] = assay type: cell-based, influenza A virus; remark: listed apart in the source
[15] = system: A/Puerto Rico/8/34 (H1N1)
in vitro [16] = conditions: dog
SARS-CoV-2 = test: Anti-SARS-CoV-2 immunofluorescence assay (anti-S) in Calu-3 cells; assay type: cell-based
[17] = male, BALB/c, mouse, in vivo, ip, 5 mg/kg, 30 min

Chain of polymerase activity of influenza A virus PR8 (P03431 whole entry, looked up): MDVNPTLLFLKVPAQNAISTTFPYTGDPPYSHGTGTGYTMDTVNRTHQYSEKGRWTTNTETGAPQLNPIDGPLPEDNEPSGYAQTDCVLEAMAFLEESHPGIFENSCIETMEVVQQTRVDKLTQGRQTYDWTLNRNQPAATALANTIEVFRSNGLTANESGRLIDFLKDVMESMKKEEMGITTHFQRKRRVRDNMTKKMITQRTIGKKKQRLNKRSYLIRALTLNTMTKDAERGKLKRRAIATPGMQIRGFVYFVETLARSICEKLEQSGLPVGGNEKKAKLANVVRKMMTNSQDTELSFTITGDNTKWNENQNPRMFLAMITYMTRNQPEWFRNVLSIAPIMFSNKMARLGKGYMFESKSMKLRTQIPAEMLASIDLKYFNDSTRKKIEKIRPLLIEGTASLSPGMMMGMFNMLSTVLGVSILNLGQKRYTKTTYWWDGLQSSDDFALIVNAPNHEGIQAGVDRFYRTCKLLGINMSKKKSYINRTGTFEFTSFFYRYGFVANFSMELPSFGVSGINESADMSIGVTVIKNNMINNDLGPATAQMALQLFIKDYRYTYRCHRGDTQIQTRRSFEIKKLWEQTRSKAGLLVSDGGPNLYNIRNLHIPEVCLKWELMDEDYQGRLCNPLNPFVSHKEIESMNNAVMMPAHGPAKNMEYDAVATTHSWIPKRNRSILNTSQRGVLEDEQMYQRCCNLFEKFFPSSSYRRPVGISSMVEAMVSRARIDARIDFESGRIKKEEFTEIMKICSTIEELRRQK

Nc1ccn([C@@H]2O[C@H](CO)[C@@H](O)C2(F)F)c(=O)n1 [Gemcitabine, 2′,2′-difluoro-2′-deoxycytidine]
EC50 (A/Hong Kong/8/68 (H3N2) [1]): 0.3 µM
viability at 10 µM (A/Hong Kong/8/68 (H3N2) [1]; read-out: viability of HK-infected cells in library screening): > 50%
suppression of Caco-2 cancer cell proliferation [2]: 40–50%
SI50 HK (A/Hong Kong/8/68 (H3N2) [3]): > 883.5
EC50 ([4]; H1N1 / PR8, MDCK): 0.6 µM
viability at 10 µM ([4]; H1N1|PR8, MDCK, read-out: viability of PR8-infected cells in library screening): > 50%
EC50 ([5]; Influenza A virus, span over PR8, HK and Lee, MDCK, read-out: EC50 against influenza viruses): 0.3 to 0.7 µM
recovery of viability of virus-infected cells with 90% cutoff ([5]; MDCK, day 3): failed to reach cell viability above 90%; also recorded: failed to recover over 90% cell viability
SI50 against influenza viruses ([5]; over PR8, HK and Lee, CC50/EC50): above 464.8
EC50 (B/Lee/40; Influenza B virus, MDCK, 72 h, read-out: EC50 Lee, MDCK, MOI 0.001, day 3): 0.7 µM
EC50 (B/Lee/40; MDCK, MOI 0.001, day 3, read-out: EC50 Lee): 0.4 µM
toxicity after oral administration [6]: liver necrosis-mediated lethal hepatotoxicity
cytotoxicity at a higher concentration (MDCK cells [7]; 100 μM, MDCK, data not shown): severe cytotoxicity
concentrations at which MDCK cell viability gradually decreased (MDCK cells [7]; incubation of MDCK cells): above 3.3 μM
CC10 (MDCK cells [7]): 5.0 ± 0.3 µM
CC10 (MDCK cells [7]; listed as gemcitabine): 5.0 µM
CC50 at 3 days [8]: > 300 µM

Nc1ccc(C(=O)Nc2ccn([C@@H]3O[C@H](CO)[C@@H](O)C3(F)F)c(=O)n2)nc1 [Compound 2h]
EC50 (A/Hong Kong/8/68 (H3N2) [1]): 5 ± 0.3 µM
EC90 (A/Hong Kong/8/68 (H3N2) [1]; read-out: EC90 HK): 11.4 ± 0.6 µM
cell death (Calu-3 cells): about 20%
SI90 HK (A/Hong Kong/8/68 (H3N2) [3]; ratio of CC10 to EC90): > 26.3
SI50 HK (A/Hong Kong/8/68 (H3N2) [3]): > 59.5
inhibition of viral polymerase activity (EGFP expression) [9]: potently inhibited viral polymerase activity in a dose-dependent manner
CC50 at 2 days (in vitro [10]): > 100 µM
stability in a microsomal condition in vitro [11]: much more stable
EC50 ([4]; H1N1 / PR8, MDCK): 6.4 ± 0.6 µM
EC90 ([4]; H1N1 / PR8, MDCK, read-out: EC90 PR8): 12.2 ± 1 µM
reduction of cytotoxicity relative to gemcitabine (MDCK cells [12]): over 60 fold
solubility (physchem): ≥ 2000 µg/mL
EC90 ([5]; Influenza A virus, PR8, MDCK, span over PR8, HK and Lee, MDCK): 10.7 to 34.3 µM
SI90 against influenza viruses ([5]; over PR8, HK and Lee, CC10/EC90): > 8.7
EC90 ([5]; span over PR8, HK and Lee, MDCK): 11.4 to 15.9 µM
EC90 (B/Lee/40; Influenza B virus, 72 h, MDCK, MOI 0.001, day 3, viability of infected cells to 90%, read-out: EC90 Lee): 15.9 ± 1.7 µM
EC50 (B/Lee/40; Influenza B virus, MDCK, 72 h, MDCK, MOI 0.001, day 3, read-out: EC50 Lee): 4.1 ± 0.4 µM
SI90 Lee (B/Lee/40; ratio of CC10 to EC90): > 18.8
SI50 Lee (B/Lee/40; ratio of CC50 to EC50): > 73.1
reduction of viral RNA copies (PR8 virus [13]): in a dose-dependent manner
reduction of viral NP protein expression (PR8 virus [14]): in a dose-dependent manner
SI90 PR8 ([15]; ratio of CC10 to EC90): > 24.5
SI50 PR8 ([15]; ratio of CC50 to EC50): > 47.2
CC50 at 3 days (in vitro [16]): > 300 µM
viability at 3 days, 300 µM (in vitro [16]): > 90%
reduction of the viral S protein (immunofluorescence) (SARS-CoV-2; 1.2, 3.7, 11.1 and 33.3 μM, 2 days): in a dose-dependent manner
EC50 (SARS-CoV-2; Severe acute respiratory syndrome coronavirus 2, 48 h, Calu-3, MOI 0.05, 2 days): 0.46 µM
SI SARS-CoV-2 (SARS-CoV-2; ratio of CC50 to EC50): > 217.4
share of 2h converted to gemcitabine [17]: 17.5%
